In ChEMBL document CHEMBL1126951, “Structure-based design of inhibitors of purine nucleoside phosphorylase. 2. 9-Alicyclic and 9-heteroalicyclic derivatives of 9-deazaguanine” (J Med Chem, 1993) one finds IC50 data, which are given here for nine molecules.

Test [1] concerns the target T1, Purine nucleoside phosphorylase (Bos taurus, UniProt P55859).
T1 sequence (P55859 whole entry): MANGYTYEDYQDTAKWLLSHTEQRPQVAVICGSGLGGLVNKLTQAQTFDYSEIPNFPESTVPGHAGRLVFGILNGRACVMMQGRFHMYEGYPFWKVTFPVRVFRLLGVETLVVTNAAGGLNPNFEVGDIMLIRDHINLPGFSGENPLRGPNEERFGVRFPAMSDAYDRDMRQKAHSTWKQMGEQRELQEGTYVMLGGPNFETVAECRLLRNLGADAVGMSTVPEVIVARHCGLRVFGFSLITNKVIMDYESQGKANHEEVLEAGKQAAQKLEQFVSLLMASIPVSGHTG
The test can be described thus: Inhibition of purine nucleoside phosphorylase from calf spleen in 50 mM phosphate.

The target in test [2] is T1, Purine nucleoside phosphorylase. Description: biochemical.
Description: In vitro inhibition of purine nucleoside phosphorylase from calf spleen in 1 mM phosphate

The term IC50 denotes the concentration at which inhibition is half-maximal. A higher IC50 goes with a need for much substance. Consider `Nc1nc2c(CC3CCCO3)c[nH]c2c(=O)[nH]1` (centres undefined), for which the values for the IC50 in test [1] and in test [2] were 300 nM and 70 nM, respectively. The matching figures for `Nc1nc(O)c2[nH]c(N)c(CC3CCCCC3)c2n1`: 150000 nM and 6600 nM. With `Nc1nc2c(CC3CCCCCC3)c[nH]c2c(=O)[nH]1`, the IC50 in test [1] amounted to 860 nM. As to `Nc1nc(O)c2[nH]cc(C3=CCCCC3)c2n1`, the IC50 in test [1] came out at 19000 nM; in test [2], 1900 nM. As to `Nc1nc2c(CC3CCCNC3)c[nH]c2c(=O)[nH]1` (centres undefined), the IC50 in test [1] and in test [2] was 1000 nM in each case. `Nc1nc(O)c2[nH]cc(C3CCCCC3)c2n1` yielded an IC50 in test [1] of 150000 nM. As for `Nc1nc2c(CC3CCCS3)c[nH]c2c(=O)[nH]1` (centres undefined), the IC50 in test [1] amounted to 220 nM; in test [2], 11 nM. In test [1], `CC1CCCC(Cc2c[nH]c3c(=O)[nH]c(N)nc23)C1` (centres undefined) registered an IC50 of 820 nM. Still for that read-out and setting: the figure for `Nc1nc(O)c2[nH]cc(CC3CCCSS3)c2n1` (centres undefined) is 200 nM.
